ChEMBL document CHEMBL2321807, “Synthesis and in vitro biological evaluation of lipophilic cation conjugated photosensitizers for targeting mitochondria” (Bioorg Med Chem, 2013)
Activity calls are given as the source filed them. No cut-off for these calls is given here.

Tests used:
[1] = n-octanol-water distribution coefficient, log D of the compound at pH 7.4 by shake flask method; format: physicochemical
[2] = Drug uptake in human MCF7 cells mitochondria at 5 uM after 14 hrs by Rh-123-based dual fluorescence staining method; format: ADME, cell-based; details: mcf7, 14 h
Colon 26 [3] = assay: Phototoxicity against mouse Colon 26 cells incubated for 24 hrs prior to irradiation measured after 30 mins by MTT assay; format: functional, cell-based; details: Colon 26, light or radiation study
Colon 26 [4] = assay: Dark toxicity against mouse Colon 26 cells up to 5 uM after 24 hrs by MTT assay; format: functional, cell-based
Colon 26 [5] = assay: Phototoxicity against mouse Colon 26 cells up to 5 uM incubated for 24 hrs prior to irradiation measured after 30 mins by MTT assay; format: functional
Colon 26 [6] = assay: Drug uptake in mouse Colon 26 cells at 5 uM after 24 hrs by fluorimetric analysis relative to CMP-OH; format: ADME, cell-based; details: colon 26, 24 h
Colon 26 [7] = assay: Drug uptake in mouse Colon 26 cells at 5 to 10 uM after 24 hrs by fluorimetric analysis; format: ADME, cell-based; details: colon 26, 24 h
Colon 26 [8] = assay: Drug uptake in mouse Colon 26 cells at 10 uM after 24 hrs by fluorimetric analysis relative to CMP-OH; format: ADME, cell-based; details: colon 26, 24 h
[9] = Drug uptake in human MCF7 cells cytoplasm at 5 uM after 14 hrs by Rh-123-based dual fluorescence staining method; format: ADME, cell-based; details: mcf7, 14 h
Colon 26 [10] = assay: Drug uptake in mouse Colon 26 cells assessed per cell at 5 uM after 24 hrs by fluorimetric analysis; format: ADME, cell-based; details: colon 26, 24 h

| logD [1] | Drug uptake [2] | fold change (FC) (Colon 26 [6]) | Drug uptake (Colon 26 [7]) | fold change (FC) (Colon 26 [8]) | Drug uptake [9] | Drug uptake (Colon 26 [10]) | Compound | IC50 (Colon 26 [3]) | Activity (Colon 26 [4]) | Activity (Colon 26 [5]) |
| --- | --- | --- | --- | --- | --- | --- | --- | --- | --- | --- |
| 2.07 | – | – | – | – | – | – | CCN(CC)c1ccc2c(-c3ccccc3C(=O)O)c3ccc(=[N+](CC)CC)cc-3oc2c1 [RHODAMINE B] | – | – | – |
| 2.3 | – | – | – | – | – | 0.19 fmol | Oc1ccc(-c2c3nc(c(-c4ccccc4)c4ccc(s4)c(-c4ccccc4)c4nc(c(-c5ccccc5)c5ccc2s5)C=C4)C=C3)cc1 | – | inactive | inactive |
| 2.04 | Not Active | 18.9 | Active | 14 | – | – | C1=Cc2nc1c(-c1ccccc1)c1ccc(s1)c(-c1ccccc1)c1nc(c(-c3ccc(OCCC[P+](c4ccccc4)(c4ccccc4)c4ccccc4)cc3)c3ccc(s3)c2-c2ccccc2)C=C1.[Br-] | 900 nM | inactive | >70% |

Continued, molecule first:

| Compound | logD [1] | Drug uptake [2] | fold change (FC) (Colon 26 [6]) | Drug uptake (Colon 26 [7]) | fold change (FC) (Colon 26 [8]) | Drug uptake [9] | Drug uptake (Colon 26 [10]) | IC50 (Colon 26 [3]) | Activity (Colon 26 [4]) | Activity (Colon 26 [5]) |
| --- | --- | --- | --- | --- | --- | --- | --- | --- | --- | --- |
| C1=Cc2nc1c(-c1ccccc1)c1ccc(s1)c(-c1ccccc1)c1nc(c(-c3ccc(OCCC[P+](c4ccccc4)(c4ccccc4)c4ccccc4)cc3)c3ccc(s3)c2-c2ccc(OCCC[P+](c3ccccc3)(c3ccccc3)c3ccccc3)cc2)C=C1.[Br-].[Br-] | 1.79 | Active | 8.3 | Active | 7 | – | – | 1670 nM | inactive | >70% |
| CCN(CC)c1ccc2c(-c3ccccc3C(=O)OCCCOc3ccc(-c4c5nc(c(-c6ccccc6)c6ccc(s6)c(-c6ccccc6)c6nc(c(-c7ccccc7)c7ccc4s7)C=C6)C=C5)cc3)c3ccc(=[N+](CC)CC)cc-3oc2c1.[Cl-] | 2.01 | Active | 10.6 | Active | 7 | Active | – | 2360 nM | inactive | >70% |
| C1=Cc2nc1c(-c1ccccc1)c1nc(c(-c3ccccc3)c3ccc([nH]3)c(-c3ccccc3)c3ccc([nH]3)c2-c2ccccc2)C=C1 | – | – | – | – | – | – | – | – | inactive | – |
| CCN(CC)c1ccc2c(-c3ccccc3C(C)=O)c3ccc(=[N+](CC)CC)cc-3oc2c1 | – | – | – | – | – | – | – | – | inactive | inactive |
